Assay results published in patent publication US9364550B2, “Bioactive carbon nanotube composite functionalized with B-sheet polypeptide block copolymer, and preparation method thereof” (INDUSTRY-ACADEMIC COOPERATION FOUNDATION, YONSEI UNIVERSITY, priority 2011, dated 2016).
Ends that are not written are not given here. Ebes = not defined here

Columns and labels:
Format in all cases: physicochemical
[1] = Solubilization of SWCNTs by linear β-sheet block copolypeptide with sonication; conditions: 5 μg SWCNTs, 0.3 mL peptide solution, pure water, sonication 15 min at room temperature
Method: First, it was confirmed whether this potential β-sheet forming peptide can bind to and then solubilize SWCNTs in pure water. The arc-produced SWCNTs were suspended in tetrahydrofuran (THF) and equal amounts of the SWCNTs (5 μg) were added into microcentrifuge tubes. After THF evaporation, the block copolypeptide solution (0.3 mL) was added and the mixture was subjected to sonication at room temperature for 15 min.
Next, the influence of ionic strength on the peptide/SWCNT hybrid formation was investigated. The β-sheet contents of the block copolypeptide solution increased with increasing NaCl concentration, and the increase reached a plateau at a salt concentration of around 50-60 mM (see FIG. 5).
In contrast, the granules became smaller when salt was added (50 mM) and the solution was subjected to a vortex (the right image in a) of FIG. 3). Upon soniciation of both mixtures, a significant difference was evident.
An investigation was made as to whether preassembled β-sheet nanoribbons could be disintegrated and used to solubilize CNTs in the presence of SWCNTs (path 4 or path 5 in FIG. 1).

[2] = Circular dichroism of linear peptide and peptide/SWCNT hybrid; conditions: CD, molar ellipticity at 215 nm, peptide without SWCNTs
Method: CD spectra were measured using a Chirascan™ circular dichroism spectrometer equipped with a Peltier temperature controller (Applied Photophysics., Ltd.). The spectra were recorded from 250 nm to 190 nm using a 2 mm path-length cuvette. Scans were repeated five times and averaged. The molar ellipticity was calculated per amino acid residue. Before measurement, 5 μM solutions of peptides with and without SWCNTs were incubated for 12 h in 20 mM or 60 mM NaCl at room temperature.

[3] = Circular dichroism of cyclic peptide with and without SWCNTs (α-helix stabilization); conditions: 50 μM peptide without SWCNTs
Method: CD spectra were measured using a Chirascan™ circular dichroism spectrometer equipped with a Peltier temperature controller (Applied Photophysics., Ltd.). The spectra were recorded from 260 nm to 200 nm using a 2 mm path-length cuvette. Scans were repeated five times and averaged. The molar ellipticity was calculated per amino acid residue. Before measurement, 50 μM solutions of peptides with and without SWCNTs were incubated for 24 h in 150 mM KF, and another 50 μM peptide solution without SWCNTs were incubated for 24 h in distilled water.
In order to verify the function of SWCNTs as protein mimics supporting the α-helical structures, CD spectra were measured on a 50 μM solution of peptide 2 of Synthesis Example 2 in pure water and a solution of peptide 2 in a 150 mM aqueous salt solution (spectra b (dotted line) and c (alternate long and two short dashes line) of FIG. 10, respectively). Peptide 2 at a concentration of 50 μM was added to a 150 mM aqueous salt solution containing 20 μg of SWCNTs, followed by sonication to form peptide/SWCNT hybrids, which were used for CD spectrum measurement (spectrum a (solid line) of FIG. 10).

Substance | peptide concentration at which most of the SWCNTs were suspended [1] | NaCl concentration at which the increase of β-sheet content reached a plateau [2] [mM] | stabilization of α-helical structure ([3]; 150 mM aqueous salt solution) | stabilization of α-helical structure ([3]; pure water)
GRKKRRQRRRPPQGSGGFKFEFKFEFKFE [block copolypeptide] | around 12.5 μM | 50 to 60 | – | –
cyclo [-WKWEWKWEWKWEW-Ebes-GTRQARRNRRRRWRR-Ebes-C-] (chain 2 GTRQARRNRRRRWRR-{Ebes-Cys}; reading uncertain; also: cyclic: chain 1-Ebes-chain 2-Ebes-Cys, closed head-to-tail, head-to-tail to a chain's N/C-terminus, printed as cyclo [-WKWEWKWEWKWEW-Ebes-GTRQARRNRRRRWRR-Ebes-C-]) [peptide 2] | – | – | failed to stabilize the α-helical structures | failed to stabilize the α-helical structures
